The results in this text go back to PubChem BioAssay AID1996.

The structures appear in SMILES notation. ≈ marks a conversion by molar mass, not a printed value. Bounds are passed on as bounds.

For the series the following is noted: buffer; pH 7.4; 200.0 µM.
As a reminder, the kinetic solubility is the concentration staying in solution when a stock, usually in DMSO, is diluted into the medium. `CCC(C)NS(=O)(=O)c1ccc(NC(=O)c2cccs2)cc1` (stereo unspecified) had a kinetic solubility of 2.6 µg/mL (≈ 7.68 µM).

`COC(=O)CSc1nc2sc3c(c2c(=O)[nH]1)CCC3` registered a kinetic solubility of 15.7 µg/mL (≈ 53 µM). As for `CCOc1ccc(NC(=O)Cc2ccc(S(=O)(=O)N3CCCCC3)cc2)cc1OCC`, the solubility (kinetic) is 7 µg/mL (≈ 15.7 µM). Molecule `COc1ccc2[nH]cc(CCNC(=O)Nc3ccccc3C)c2c1` returned a kinetic solubility of 10.4 µg/mL (≈ 32.2 µM). In the case of `COC(=O)c1cccc(Cn2cc([N+](=O)[O-])cn2)c1` it was more than 39.2 µg/mL; in that of `Cc1ccc(C(=O)NC(C)CCc2ccccc2)cc1S(=O)(=O)N1CCOCC1` (stereo unspecified), 5.6 µg/mL (≈ 13.4 µM).

The molecule `O=C(NCC1CC1)Nc1cccc(C(F)(F)F)c1` returned a solubility (kinetic) of 29.3 µg/mL (≈ 113 µM). For `CNCCc1ccc(OC)c(OC)c1` the value was more than 29.3 µg/mL. For `COc1cc(SC)ccc1C(=O)N(Cc1ccccc1)c1ccccn1` the value was more than 54.7 µg/mL; for `Cc1noc(C(=O)Nc2ccc(C#N)cc2)c1Cl`, 1.6 µg/mL (≈ 6.11 µM).

As to `O=S(=O)(Oc1ccccc1)c1cccnc1`, the solubility (kinetic) came out at 29.4 µg/mL (≈ 125 µM). Turning to `CN=C1C([N+](=O)[O-])=CC=C2C1=NC1(CCCCC1)N2O`, the kinetic solubility came out at 10.8 µg/mL (≈ 39.1 µM). Take `CN(Cc1ccccc1)C(=O)COC(=O)C12CC3CC(CC(Br)(C3)C1)C2`: the kinetic solubility amounted to 18.8 µg/mL (≈ 44.7 µM).

On to `O=C(NCC(c1ccco1)N1CCCC1)c1sc2cc(F)ccc2c1Cl` (stereo unspecified), for which the kinetic solubility worked out at 7.5 µg/mL (≈ 19.1 µM).

For the molecule `O=C(CN1C(=O)NC(CCc2ccccc2)C1=O)Nc1ccc(F)c(F)c1F` (stereo unspecified), the solubility (kinetic) was 4.5 µg/mL (≈ 11.5 µM). Turning to `O=[N+]([O-])c1cc(Cl)ccc1N1CCOCC1`, the solubility (kinetic) amounted to 24.4 µg/mL (≈ 101 µM). In the case of `COc1ccc(C(C)(C)C)cc1NC(=O)C1=CC=CN2CCS(=O)(=O)N=C12` it was 1.7 µg/mL (≈ 4.36 µM). In the case of `COc1cc(C)c(Cl)cc1S(=O)(=O)N1CCSC1`, the solubility (kinetic) amounted to 33 µg/mL (≈ 107 µM). In the case of `O=C(CCC(=O)N1CCN(S(=O)(=O)c2ccccc2)CC1)c1ccc(Br)cc1` it was 6.9 µg/mL (≈ 14.8 µM).

Regarding `CCN=c1sc(C(=O)Nc2ccccc2)c(C)n1CC`, the kinetic solubility came to 43 µg/mL (≈ 149 µM). As to `O=C(CN1CCN(Cc2ccccc2)CC1)Nc1ccccc1`, the kinetic solubility was more than 46.4 µg/mL. For `NC(=O)c1c(/N=C/c2cccnc2)sc2c1CCCC2` the value was 22 µg/mL (≈ 77.1 µM). In the case of `CC(C)NC[C@H](O)COc1cccc2ccccc12.Cl`, the solubility (kinetic) is more than 44.4 µg/mL. In turn, `CCS(=O)(=O)c1ccc(O)c(NC(=O)Nc2ccc(C(C)(C)C)cc2)c1` had a solubility (kinetic) of 0.8 µg/mL (≈ 2.12 µM).

On to `COc1cc(NC(=O)Cn2c([N+](=O)[O-])cnc2C)c(OC)cc1Cl`, for which the kinetic solubility was 45.3 µg/mL (≈ 128 µM). For `O=C(Nc1ccccc1F)c1ccc(CN2CCN(c3ccccc3)CC2)cc1` the value was 4.1 µg/mL (≈ 10.5 µM); for `COc1ccc(NC(=S)NC(=O)/C=C/c2ccccc2)cc1`, less than 0.3 µg/mL; for `CN(Cc1ccccn1)Cc1nc(COc2ccccc2)no1`, 45.7 µg/mL (≈ 147 µM). For `S=C(c1ccc(-c2ccc(Br)cc2)o1)N1CCCCC1` the value was less than 0.8 µg/mL; for `CCOc1cc(/C=N/NC(=O)C2CCCC2)ccc1O`, more than 41.5 µg/mL. `CC(C)(C)C(=O)Cn1ncc(N2CCOCC2)c(Cl)c1=O` gave a kinetic solubility of more than 47.1 µg/mL. With `O=C(Nc1cccc(S(=O)(=O)NC2=NCCC2)c1)c1ccc(F)cc1F`, the kinetic solubility amounted to 25.8 µg/mL (≈ 68 µM). The molecule `O=C(Nc1ccc(SC(F)F)cc1)c1ccc(F)cc1` displayed a solubility (kinetic) of 1.3 µg/mL (≈ 4.37 µM). Turning to `O=C(CSc1ccc(C(F)(F)F)cc1[N+](=O)[O-])N1CCOCC1`, the kinetic solubility amounted to 22.9 µg/mL (≈ 65.4 µM). `NC(=O)CN1C(=O)C(=O)N(Cc2ccc(F)cc2)C1=O` gave a solubility (kinetic) of more than 41.9 µg/mL. On to `O=S(=O)(Nc1ccccc1N1CCOCC1)c1ccccc1C(F)(F)F`, for which the solubility (kinetic) came to 7.3 µg/mL (≈ 18.9 µM).

Molecule `Cc1cnc(C(=O)NC(C)CCc2ccccc2)cn1` (stereo unspecified) yielded a kinetic solubility of more than 40.4 µg/mL.

For the molecule `CC12CN3CC(C)(CN(C1)C3c1ccccc1)C2O` (stereo unspecified), the kinetic solubility is more than 38.8 µg/mL. For `Cc1c(F)cccc1NC(=O)CCCCCC1NC(=O)NC1C` (stereo unspecified) the value was 46.7 µg/mL (≈ 145 µM); for `Fc1ccc(-c2csc(-c3cccnc3)n2)cc1F`, 0.7 µg/mL (≈ 2.55 µM). For `O=S(=O)(c1cccc(-c2nnco2)c1)N1CCOCC1` the value was more than 44.3 µg/mL; for `Cc1cc(C)cc(Nc2nc3ccccc3c(=O)[nH]2)c1`, 0.2 µg/mL (≈ 0.754 µM); for `CCOc1ccccc1NC(=O)C(=O)CC(=O)c1cccc(OC)c1`, 9.6 µg/mL (≈ 28.1 µM).

For `Nc1cc(=O)[nH]c(SCC(=O)Nc2ccc(N3CCCCC3)cc2)n1`, the solubility (kinetic) is 4.8 µg/mL (≈ 13.4 µM). In the case of `Nc1c(Cl)ncnc1NCCc1ccc(O)cc1` it was 37.1 µg/mL (≈ 140 µM). For `Cc1ccc(C(=O)NC(C)c2ccc(-n3ccnc3)cc2)c(C)c1` (stereo unspecified) the value was 46 µg/mL (≈ 144 µM); for `Cc1cc(OC(F)F)ccc1NC(=O)Nc1ccc2c(c1)OCO2`, less than 0.4 µg/mL. In the case of `CC(=O)c1cnc(Oc2cc(Cl)ccc2Cl)nc1C` it was 42.4 µg/mL (≈ 143 µM); in that of `O=C(NC(=S)N1CCc2ccccc21)C1CCC1`, more than 39.1 µg/mL.

Turning to `CCCCN1CC(O)=C(c2nc(-c3ccc(Br)cc3)cs2)C1=N`, the kinetic solubility was less than 0.3 µg/mL. In the case of `CCOc1ccccc1NC(=O)NC1Cc2ccccc2C1` it was less than 0.3 µg/mL.
